Test results as given in patent US20080139536A1, “Benzodiazepines for Treating or Preventing Rsv Infection” (Novartis Pharmaceuticals Corporation, priority 2004, published 2008).

Tested on: RSV (RSS strain)
Test: RSV ELISA antigen reduction assay in Hep-2 cells
Type: cell-based, Respiratory Syncytial Virus
Conditions: RSV-infected Hep-2 cells, 3 day assay, ELISA OD 490 nm, 7-point dilution 50 μM-0.78 μM
Description: This was quantified by optical density (OD) measurement.
This assay was set up using all 96 wells of flat-bottomed 96-well plates. The outer wells were not subjected to any greater amount of evaporation than the inner wells during the 3 day assay period. (i.e. No “edge effect” seen).
Plates were set up one day before addition of virus and compounds. The assay then ran for 3 days with ELISA development taking place on the 4th day.
All 96 wells of a microtitre plate were seeded at a density of 4×10^3 Hep-2 cells/well in 100 μl/well of Growth Medium (GM) consisting of Dulbecco's MEM (DMEM) with Glutamax-1, Sodium Pyruvate, 1000 mg/l glucose and pyridoxine (Invitrogen, catalogue number 21885-025) and supplemented with 10% FBS. (See Plate 1).
A frozen vial of RSV (RSS strain provided by Virogen Ltd) stock solution was removed from the −80 freezer or liquid nitrogen store and diluted to a known Multiplicity of Infection (m.o.i) in Growth Medium.
The m.o.i. was calculated by prior titration of the virus stock (by the ELISA assay method) as the virus input required to achieve a window of at least 0.8 OD units between infected and uninfected control wells.
50 μl of diluted virus was added to infected, “virus+”, wells by multichannel pipette; 50 μl of Growth Medium was added to uninfected, cell control wells (CC) by multichannel pipette. (See Plate 2)
Plates were incubated at 37° C. for 1 hr to allow virus adsorption.
Compounds were made up at 4× strength in GM containing 2% DMSO (a final DMSO concentration in the assay of 0.5%).
Six compounds were tested on each assay plate as illustrated below. (See Plate 3). Compounds were tested in duplicate wells across a 7-point dilution series (from 50 μM-0.78 μM): in the presence of virus.
Virus infected, untreated wells served as the virus control (VC); Uninfected, untreated wells serve as the cell control (CC). The difference in absorbance between CC and VC wells constitutes the assay window.
200 μl of GM containing 2% DMSO was added to all wells except the ‘50 μM’ or first column, to which 392 μl of GM was added. 8 μl of each test compound was cherry-picked from a thawed Arrow screening plate and transferred to the appropriate well in the ‘50 μM’ column. Since the compound stock was at 10 mM in 100% DMSO, this will maintain the DMSO level at 2% at the top compound concentration.
Using a multichannel pipette, 200 μl was transferred from the 50 μM column to the 25 μM column, then to the 12.5 μM column and so on across the dilution plate creating a serial doubling dilution. Compounds were mixed upon transfer and tips changed between transfers, ensuring also that no compound was transferred to the last column of compound-free wells (0 μM).
The dilution plate was turned lengthways and 50 μl of compound easily transferred by multichannel pipette from the dilution plate to the assay plate, column by column. There was therefore an excess of 100 μl remaining in the dilution plate.
Plates were incubated at 37° C., 5% CO2 for 3 days.
Media was tapped out from wells directly into Virkon (1% solution in water) and plates were washed by immersing in a plastic box containing PBS. 50 μl/well of 75%/25% vol/vol acetone/methanol fixative was added by multichannel pipette and left for 3 mins.
Some 200 μl of blocking solution (2% Marvel in PBS containing 0.05% Tween) was added per well by multichannel pipette. Plates were incubated at 37° C. in a shaking incubator for 60 mins.
RSV mouse monoclonal antibody NCL-RSV3 (Novocastra) was diluted 1/400 in PBS/2% Marvel/0.05% Tween and 50 μl was added per well. Plates were incubated at 37° C. in a shaking incubator for 90 mins.
DAKo rabbit anti-mouse HRP conjugate (DAKO catalogue number P0260) was diluted 1/1000 in PBS/2% Marvel/0.05% Tween and 50 μl was added per well. Plates were incubated at 37° C. in a shaking incubator for 60 mins.
Substrate (SigmaFast OPD) was prepared in advance by dissolving 1 urea tablet in 20 mL water. […]

[1] = human respiratory syncytial virus, 72 h

Row | Compound | IC50 [1] | IC50
1 | O=C(N[C@H]1N=C(c2ccccc2)c2ccccc2NC1=O)c1ccc(-c2ccccn2)s1 [Example 45, (S)-5-Pyridin-2-yl-thiophene-2-carboxylic acid (2-oxo-5-phenyl-2,3-dihydro-1H-benzo[e][1,4]diazepin-3-yl)-amide] | < 5 µM | 
2 | CN1CCN(c2ccc(C(=O)N[C@H]3N=C(c4ccccc4)c4ccccc4NC3=O)cc2)CC1 [Example 29, (S)-4-(4-Methyl-piperazin-1-yl)-N-(2-oxo-5-phenyl-2,3-dihydro-1H-benzo[e][1,4]diazepin-3-yl)-benzamide] | < 5 µM | 
3 | Cc1ccc(C(=O)N[C@H]2N=C(c3ccccc3)c3ccccc3NC2=O)c(N2CCS(=O)(=O)CC2)c1 [Example 24, (S)-2-(1,1-Dioxo-1λ6-thiomorpholin-4-yl)-4-methyl-N-(2-oxo-5-phenyl-2,3-dihydro-1H-benzo[e][1,4]diazepin-3-yl)-benzamide] | < 5 µM | 
4 | O=C(N[C@H]1N=C(c2ccccc2)c2ccccc2NC1=O)c1csc(-c2ccncc2)n1 [Example 39, (S)-2-Pyridin-4-yl-thiazole-4-carboxylic acid (2-oxo-5-phenyl-2,3-dihydro-1H-benzo[e][1,4]diazepin-3-yl)-amide] | < 5 µM | 
5 | CN1CCN(c2ccc(C(=O)NC3N=C(c4ccccc4)c4ccccc4NC3=O)cn2)CC1 (racemic) [Example 1, 6-(4-Methyl-piperazin-1-yl)-N-(2-oxo-5-phenyl-2,3-dihydro-1H-benzo[e][1,4]diazepin-3-yl)-nicotinamide] | 5 to 10 µM | 
6 | O=C(N[C@H]1N=C(c2ccccc2)c2ccccc2NC1=O)c1cccc(S(=O)(=O)N2CCOCC2)c1 [Example 31, (S)-3-(Morpholine-4-sulfonyl)-N-(2-oxo-5-phenyl-2,3-dihydro-1H-benzo[e][1,4]diazepin-3-yl)-benzamide] | 5 to 10 µM | 
7 | O=C(N[C@H]1N=C(c2ccccc2)c2ccccc2NC1=O)c1cc(C(F)(F)F)ccc1N1CCOCC1 [Example 20, (S)-2-Morpholin-4-yl-N-(2-oxo-5-phenyl-2,3-dihydro-1H-benzo[e][1,4]diazepin-3-yl)-5-trifluoromethyl-benzamide] | > 10 µM | 
8 | O=C(N[C@H]1N=C(c2ccccc2)c2ccccc2NC1=O)c1sccc1CN1CCOCC1 [Example 48, (S)-3-Morpholin-4-ylmethyl-thiophene-2-carboxylic acid (2-oxo-5-phenyl-2,3-dihydro-1H-benzo[e][1,4]diazepin-3-yl)-amide] | < 5 µM | 
9 | O=C(N[C@H]1N=C(c2ccccc2)c2ccccc2NC1=O)c1ccc(N2CCOCC2)nc1 [Example 47, (S)-6-Morpholin-4-yl-N-(2-oxo-5-phenyl-2,3-dihydro-1H-benzo[e][1,4]diazepin-3-yl)-nicotinamide] | < 5 µM | 
10 | (S)-2-(1,1-Dioxo-1λ6-thiomorpholin-4-yl)-N-(2-oxo-5-phenyl-2,3-dihydro-1H-benzo[e][1,4]diazepin-3-yl)-nicotinamide [Example 22] |  | > 10 µM
11 | O=C(N[C@H]1N=C(c2ccccc2)c2ccccc2NC1=O)c1cc(N2CCS(=O)(=O)CC2)ccc1Cl [Example 36, (S)-2-Chloro-5-(1,1-dioxo-1λ6-thiomorpholin-4-yl)-N-(2-oxo-5-phenyl-2,3-dihydro-1H-benzo[e][1,4]diazepin-3-yl)-benzamide] | < 5 µM | 
12 | O=C(N[C@H]1N=C(c2ccccc2)c2ccccc2NC1=O)c1ccc(N2CCS(=O)(=O)CC2)cc1Cl [Example 35, (S)-2-Chloro-4-(1,1-dioxo-1λ6-thiomorpholin-4-yl)-N-(2-oxo-5-phenyl-2,3-dihydro-1H-benzo[e][1,4]diazepin-3-yl)-benzamide] | < 5 µM | 
13 | O=C(NC1N=C(c2ccccc2)c2ccccc2NC1=O)c1ccc(N2CCCCC2)nc1 (racemic) [Example 2, 3,4,5,6-Tetrahydro-2H-[1,2′]bipyridinyl-5′-carboxylic acid (2-oxo-5-phenyl-2,3-dihydro-1H-benzo[e][1,4]diazepin-3-yl)-amide] | 5 to 10 µM | 
14 | O=C(N[C@H]1N=C(c2ccccc2)c2ccccc2NC1=O)c1ccc(F)cc1N1CCOCC1 [Example 13, (S)-4-Fluoro-2-morpholino-4-yl-N-(2-oxo-5-phenyl-2,3-dihydro-1H-benzo[e][1,4]diazepin-3-yl)-benzamide] |  | 5 to 10 µM
15 | Cc1cccc(N2CCS(=O)(=O)CC2)c1C(=O)N[C@H]1N=C(c2ccccc2)c2ccccc2NC1=O [Example 25, (S)-2-(1,1-Dioxo-1λ6-thiomorpholin-4-yl)-6-methyl-N-(2-oxo-5-phenyl-2,3-dihydro-1H-benzo[e][1,4]diazepin-3-yl)-benzamide] | > 10 µM | 
16 | O=C(N[C@H]1N=C(c2ccccc2)c2ccccc2NC1=O)c1cc(C(F)(F)F)ccc1N1CCCC1 [Example 19, (S)—N-(2-Oxo-5-phenyl-2,3-dihydro-1H-benzo[e][1,4]diazepin-3-yl)-2-pyrrolidin-1-yl-5-trifluoromethyl-benzamide] | < 5 µM | 
17 | O=C(NC1N=C(c2ccccc2)c2ccccc2NC1=O)c1ccccc1N1CCOCC1 (racemic) [Example 50, 2-Morpholin-4-yl-N-(2-oxo-5-phenyl-2,3-dihydro-1H-benzo[e][1,4]diazepin-3-yl)-benzamide] | < 5 µM | 
18 | Cc1cccc(C(=O)N[C@H]2N=C(c3ccccc3)c3ccccc3NC2=O)c1N1CCS(=O)(=O)CC1 [Example 23, (S)-2-(1,1-Dioxo-1λ6-thiomorpholin-4-yl)-3-methyl-N-(2-oxo-5-phenyl-2,3-dihydro-1H-benzo[e][1,4]diazepin-3-yl)-benzamide] | < 5 µM | 
19 | O=C(N[C@H]1N=C(c2ccccc2)c2ccccc2NC1=O)c1cc(CN2CCOCC2)on1 [Example 43, (S)-5-Morpholin-4-ylmethyl-isoxazole-3-carboxylic acid (2-oxo-5-phenyl-2,3-dihydro-1H-benzo[e][1,4]diazepin-3-yl)-amide] | < 5 µM | 
20 | O=C(N[C@H]1N=C(c2ccccc2)c2ccccc2NC1=O)c1ccoc1CN1CCOCC1 [Example 41, (S)-2-Morpholin-4-ylmethyl-furan-3-carboxylic acid (2-oxo-5-phenyl-2,3-dihydro-1H-benzo[e][1,4]diazepin-3-yl)-amide] | < 5 µM | 
21 | O=C(N[C@H]1N=C(c2ccccc2)c2ccccc2NC1=O)c1ccc(C(F)(F)F)cc1N1CCCC1 [Example 16, (S)—N-(2-Oxo-5-phenyl-2,3-dihydro-1H-benzo[e][1,4]diazepin-3-yl)-2-pyrrolidin-1-yl-4-trifluoromethyl-benzamide] | 5 to 10 µM | 
22 | O=C(N[C@H]1N=C(c2ccccc2)c2ccccc2NC1=O)c1ccc(CN2CCOCC2)o1 [Example 32, (S)-5-Morpholin-4-ylmethyl-furan-2-carboxylic acid (2-oxo-5-phenyl-2,3-dihydro-1H-benzo[e][1,4]diazepin-3-yl)-amide] | < 5 µM | 
23 | O=C(N[C@H]1N=C(c2ccccc2)c2ccccc2NC1=O)c1ccc(CN2CCCCC2)o1 [Example 10, (S)-5-Piperidin-1-ylmethyl-furan-2-carboxylic acid (2-oxo-5-phenyl-2,3-dihydro-1H-benzo[e][1,4]diazepin-3-yl)-amide] | < 5 µM | 
24 | O=C(N[C@H]1N=C(c2ccccc2)c2ccccc2NC1=O)c1ccc(C(F)(F)F)cc1N1CCOCC1 [Example 18, (S)-2-Morpholin-4-yl-N-(2-oxo-5-phenyl-2,3-dihydro-1H-benzo[e][1,4]diazepin-3-yl)-4-trifluoromethyl-benzamide] | < 5 µM | 
